US20110172200A1, “USE OF INHIBITOR OF BETA-LACTAMASES AND ITS COMBINATION WITH BETA-LACTAM ANTIBIOTICS” (priority 2008, published 2011)
“And” between values parts separate entries of the source, which are not always exact repeats. Equal entries are not always repeated. Where two headings read alike, the source gives them in different places. One block for each compound: values may come before it.

Experiments:
[1] = tested on: E. faecalis ATCC 29212; test: Broth microdilution susceptibility assay (MIC), strain S5; format: cell-based; details: duplicate, CAMHB, 35° C.; for MIC S5: 24 h; for MIC: Enterococcus faecalis, ATCC29212, 24 h
Method: (§1) Representative inhibitor of beta-lactamases of formula (I) was evaluated against the bacterial strains producing serine-based class A beta-lactamases including CTX-M, TEM-type, SHV-type extended spectrum beta-lactamases (ESBL) and class C betalactamases (AmpC) as noted in Table 2.
(§2) Bacterial suspensions with a turbidity equivalent to that of a 0.5 McFarland standard were prepared by suspending a tiny portion of one colony from blood agar plates in 2 mL of sterile saline. Suspensions were further diluted with cation adjusted Mueller Hinton Broth (CAMHB) to obtain a final inoculum of 5×10^5 CFU/mL.
(§3) The in vitro activities of the antibiotics were determined by the broth microdilution method as recommended by CLSI guidelines.
(§4) MIC experiments were performed in duplicate in 96-well microtiter plates using CAMHB. Serial twofold dilutions of each antibiotic either alone or in combination with constant concentration ratio of LK-176 (2:1) and (10:1) were prepared in CAMHB. The bacterial suspension with final inoculum […] was transferred to the test medium containing the antibacterial substances. In each well of microtiter plate 50 μL of bacterial inoculum and 50 μL of antibiotic dilutions were combined. Each plate included 4 wells with no bacterial inoculum (negative control) and 4 wells with no test compound and no antibiotic (positive control). The plates were incubated at 35° C. for 24 h. Purity check and colony counts on each inoculum suspension was performed to ensure that the final inoculum concentration routinely obtained closely approximates 5×10^5 CFU/mL.

[2] = tested on: E. cloacae 4013; test: Broth microdilution susceptibility assay (MIC), strain S3; format: cell-based; details: duplicate, CAMHB, 35° C.; for MIC S3: 24 h; for MIC: Enterobacter cloacae, 4013, 24 h
Method: as §1, §2, §3, §4

[3] = tested on: E. cloacae B274 (AmpC); test: Broth microdilution susceptibility assay (MIC), strain S1; format: cell-based; details: CAMHB, 35° C., 24 h; for MIC: Enterobacter cloacae
Method: as §1, §2, §3, §4

[4] = tested on: E. caerogenes ATCC 29751 (class II); test: Broth microdilution susceptibility assay (MIC), strain S4; format: cell-based; details: duplicate, CAMHB, 35° C., 24 h
Method: as §1, §2, §3, §4

[5] = tested on: E. cloacae B275 (AmpC); test: Broth microdilution susceptibility assay (MIC), strain S2; format: cell-based; details: duplicate, CAMHB, 35° C., 24 h
Method: as §1, §2, §3, §4

[6] = tested on: K. pneumoniae ATCC 700603 (SHV-18); test: Broth microdilution susceptibility assay (MIC), strain S7; format: cell-based; details: CAMHB, 35° C.; for MIC S7: 24 h; for MIC: Klebsiella pneumoniae, ATCC700603, 24 h
Method: as §1, §2, §3, §4

[7] = tested on: C. freundii B271 (SHV-5); test: Broth microdilution susceptibility assay (MIC), strain S8; format: cell-based; details: CAMHB, 35° C., 24 h; for MIC: Citrobacter freundii
Method: as §1, §2, §3, §4

[8] = tested on: K. pneumoniae DSA 1461; test: Broth microdilution susceptibility assay (MIC), strain S6; format: cell-based; details: Table 2 lower part, duplicate, CAMHB, 35° C., 24 h
Method: as §1, §2, §3, §4

[9] = tested on: C. freundii B318 (CTX-M); test: Broth microdilution susceptibility assay (MIC), strain S9; format: cell-based
Method: as §1, §2, §3, §4

[10] = molecular target: class C beta-lactamase P99 (AmpC) (Enterobacter cloacae, UniProt P05364); test: IC50 determination with nitrocefin as reporter substrate, P99; format: biochemical
Sequence of class C beta-lactamase P99 (AmpC) (P05364 21-381): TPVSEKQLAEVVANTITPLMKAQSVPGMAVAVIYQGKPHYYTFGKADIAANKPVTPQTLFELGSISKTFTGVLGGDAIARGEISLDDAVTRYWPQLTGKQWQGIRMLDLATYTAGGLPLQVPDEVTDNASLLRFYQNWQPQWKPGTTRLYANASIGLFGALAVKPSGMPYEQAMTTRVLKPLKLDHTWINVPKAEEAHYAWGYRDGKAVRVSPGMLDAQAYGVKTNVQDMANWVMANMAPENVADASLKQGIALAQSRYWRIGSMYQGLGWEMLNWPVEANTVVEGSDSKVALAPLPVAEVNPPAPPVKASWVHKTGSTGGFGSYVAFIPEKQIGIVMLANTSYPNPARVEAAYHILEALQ
Method: (§5) The IC50 value represents the concentration of inhibitor required to effect a 50% loss of activity of free enzyme. A standard test for the production of beta-lactamase involves use of the chromogenic cephalosporin, nitrocefin.
(§6) Homogeneously purified class A beta-lactamases TEM-1 and SHV-1 from E. coli and class C enzyme P99 from Enterobacter cloaca were employed in the assay.
(§7) All the enzymes and compounds were dissolved in 50 mM phosphate buffer pH 7.0 and all further dilutions were done with the same buffer solution. Enzyme and compound dilutions were pre-incubated for 30 min at 37° C. and in a final volume of 500 μl. Than 10 μl of 5 mM nitrocefin (reporter substrate) was added to the solution and the absorbance at 482 nm was measured during 2 to 5 minutes. The initial rate was calculated for all the different solutions. The […] values were determined as the inhibitor concentration that gave an initial hydrolysis rate of nitrocefin equal to 50% of the hydrolysis rate of nitrocefin in absence of inhibitor.
(§8) Representative compounds of formula (I) were evaluated as inhibitors of beta-lactamases of TEM-1 and SHV-1 (class A, penicillinase) from E. coli and P-99 (class C, cephalosporinase) from Enterobacter cloacae, by relative IC50 analysis using a procedure similar to that described above.

[11] = molecular target: class A beta-lactamase SHV-1 (Escherichia coli, UniProt P0AD63); test: IC50 determination with nitrocefin as reporter substrate, SHV-1; format: biochemical, E. coli
Sequence of class A beta-lactamase SHV-1 (P0AD63 22-286): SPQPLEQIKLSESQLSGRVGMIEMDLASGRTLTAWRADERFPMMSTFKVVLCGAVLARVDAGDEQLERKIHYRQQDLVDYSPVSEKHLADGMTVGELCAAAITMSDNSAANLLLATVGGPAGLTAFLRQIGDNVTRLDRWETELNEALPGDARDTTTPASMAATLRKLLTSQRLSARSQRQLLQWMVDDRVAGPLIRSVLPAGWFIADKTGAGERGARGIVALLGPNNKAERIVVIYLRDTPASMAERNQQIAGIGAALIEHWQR
Method: as §5, §6, §7, §8

[12] = molecular target: class A beta-lactamase TEM-1 (Escherichia coli, UniProt P62593); test: IC50 determination with nitrocefin as reporter substrate, TEM-1; format: biochemical, E. coli; details: 30 min pre-incubation at 37° C., phosphate buffer pH 7.0, nitrocefin
Sequence of class A beta-lactamase TEM-1 (P62593 24-286 limits assumed): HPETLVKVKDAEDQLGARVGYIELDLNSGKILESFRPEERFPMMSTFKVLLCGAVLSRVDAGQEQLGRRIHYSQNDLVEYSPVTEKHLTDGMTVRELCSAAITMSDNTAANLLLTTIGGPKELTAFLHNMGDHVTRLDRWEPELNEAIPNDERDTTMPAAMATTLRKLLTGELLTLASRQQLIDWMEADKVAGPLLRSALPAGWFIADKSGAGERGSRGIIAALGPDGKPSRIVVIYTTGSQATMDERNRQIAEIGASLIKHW
Method: as §5, §6, §7, §8

[13] = tested on: strains S1-S9; test: Broth microdilution susceptibility assay (MIC), all strains; format: cell-based; details: strains deemed as resistant to LK-176 alone
Method: as §1, §2, §3
as §4, with “The plates were incubated at 35° C. for 24 h. Purity check and colony counts on each inoculum suspension was performed to ensure that the final inoculum concentration routinely obtained closely approximates 5×10^5 CFU/mL.” left out

[14] = tested on: AmpC; details: cited from earlier work
[15] = single and repeated doses, i.v. and oral, healthy subjects; cited from earlier work
[16] = Table 2 upper part, duplicate (two lines per substance)
[17] = Table 2 lower part, duplicate, CAMHB, 35° C., 24 h

- MIC S5 ([1]; Table 2 upper part): 32 µg/mL and 16 µg/mL
Structure (SMILES): CO/N=C(\C(=O)N[C@@H]1C(=O)N2C(C(=O)[O-])=C(C[N+]3(C)CCCC3)CS[C@H]12)c1csc(N)n1 [Cefepime (EPI), cefepime]

Structure (SMILES): CO/N=C(\C(=O)N[C@@H]1C(=O)N2C(C(=O)O)=C(COC(C)=O)CS[C@H]12)c1csc(N)n1 [Cefotaxime (OTA), cefotaxime]
- MIC S5 ([1]; Table 2 upper part): 16 µg/mL
- MIC S3 ([2]; Table 2 upper part): 64 µg/mL
- MIC S1 [3, 16]: 128 µg/mL
- MIC S4 ([4]; Table 2 upper part): 8 µg/mL
- MIC S2 ([5]; Table 2 upper part): 128 µg/mL

- MIC S5 ([1]; Table 2 upper part): 16 µg/mL
- MIC S3 ([2]; Table 2 upper part): 128 µg/mL
- MIC S1 [3, 16]: >128 µg/mL
- MIC S4 ([4]; Table 2 upper part): 16 µg/mL
- MIC S2 ([5]; Table 2 upper part): >128 µg/mL
Structure (SMILES): CC(C)(O/N=C(\C(=O)N[C@@H]1C(=O)N2C(C(=O)[O-])=C(C[n+]3ccccc3)CS[C@H]12)c1csc(N)n1)C(=O)O [Ceftazidime (TAZ), ceftazidime]

- MIC S7 ([6]; Table 2 lower part, duplicate): 8 µg/mL
- MIC S5 ([1]; Table 2 lower part): >128 µg/mL
- MIC S8 ([7]; Table 2 lower part, duplicate): 32 µg/mL
- MIC S3 ([2]; Table 2 lower part): 32 µg/mL
- MIC S1 ([3]; Table 2 lower part, duplicate): 128 µg/mL
- MIC S6 [8]: >128 µg/mL and 128 µg/mL
- MIC S4 ([4]; Table 2 lower part): 8 µg/mL
- MIC S2 ([5]; Table 2 lower part): 64 µg/mL
Structure (SMILES): CO/N=C(\C(=O)N[C@@H]1C(=O)N2C(C(=O)O)=C(CSc3nc(=O)c(O)nn3C)CS[C@H]12)c1csc(N)n1 [Ceftriaxone (TRI), ceftriaxone]

- MIC S7 ([6]; Table 2 lower part, duplicate): 64 µg/mL and 32 µg/mL
- MIC S5 ([1]; Table 2 lower part): 64 µg/mL and 32 µg/mL
- MIC S9 [9]: 128 µg/mL
- MIC S8 ([7]; Table 2 lower part, duplicate): 128 µg/mL
- MIC S3 ([2]; Table 2 lower part): >128 µg/mL
- MIC S1 ([3]; Table 2 lower part, duplicate): >128 µg/mL
- MIC S6 [8]: >128 µg/mL
- MIC S4 ([4]; Table 2 lower part): 128 µg/mL
- MIC S2 ([5]; Table 2 lower part): >128 µg/mL
Structure (SMILES): CO/N=C(\C(=O)N[C@@H]1C(=O)N2C(C(=O)O)=C(COC(N)=O)CS[C@H]12)c1ccco1 [Cefuroxime (URO), cefuroxime]

Structure (SMILES): CO[C@H]1CCC[C@H]2C1=C(C(=O)O)N1C(=O)C(C(C)O)[C@@H]21 (stereo partly drawn) [LK-176, (4S,8S,9R)-4-methoxy-10-(1-Hydroxyethyl)-11-oxo-1-azatricyclo-[7.2.0.0 (3,8)]undec-2-ene-2-carboxylic acid]
- MIC ([6]; Table 2 lower part, duplicate): > 128 µg/mL
- MIC ([6]; Table 2 upper part, column 6, duplicate): 16 µg/mL
- MIC S7 ([6]; Table 2 lower part, duplicate): 128 µg/mL
- IC50 [10]: 0.15 nM
- MIC ([1]; Table 2 lower part): 64 µg/mL
- MIC ([1]; Table 2 upper part): 32 µg/mL
- MIC S9 [9, 17]: 32 µg/mL
- MIC ([7]; Table 2 lower part, duplicate): 64 µg/mL
- MIC ([7]; Table 2 upper part, column 7, duplicate): 128 µg/mL
- IC50 [11]: 200 nM
- MIC ([2]; Table 2 lower part): 64 µg/mL
- MIC ([2]; Table 2 upper part): 64 µg/mL
- MIC S3 ([2]; Table 2 lower part): 32 µg/mL
- IC50 [12]: 15 nM
- MIC values of LK-176 alone, all strains S1-S9 [13]: above 16 mg/L
- MIC ([3]; Table 2 lower part, duplicate): 32 µg/mL
- MIC [3, 16]: 32 µg/mL
- MIC S1 ([3]; Table 2 lower part, duplicate): 16 µg/mL
- MIC ([8]; Klebsiella pneumoniae, DSA1461): 16 µg/mL
- MIC ([4]; Table 2 lower part): 16 µg/mL
- MIC ([4]; Table 2 upper part): 32 µg/mL
- MIC ([5]; Enterobacter cloacae, Table 2 lower part): 64 µg/mL

- MIC S7 ([6]; Table 2 lower part, duplicate): >128 µg/mL
- MIC S5 ([1]; Table 2 lower part): 16 µg/mL
- MIC S9 [9, 17]: 128 µg/mL
- MIC S8 ([7]; Table 2 lower part, duplicate): >128 µg/mL
- MIC S3 ([2]; Table 2 lower part): >128 µg/mL
- MIC S1 ([3]; Table 2 lower part, duplicate): >128 µg/mL
- MIC S6 [8]: >128 µg/mL
- MIC S4 ([4]; Table 2 lower part): 32 µg/mL
- MIC S2 ([5]; Table 2 lower part): >128 µg/mL
Structure (SMILES): CCN1CCN(C(=O)N[C@@H](C(=O)N[C@@H]2C(=O)N3[C@@H]2SC(C)(C)[C@@H]3C(=O)O)c2ccccc2)C(=O)C1=O [Piperacillin (PIP), piperacillin]

Structure (SMILES): C=CC1=C(C(=O)O)N2C(=O)[C@@H](NC(=O)/C(=N\OCC(=O)O)c3csc(N)n3)[C@H]2SC1 [cefixime]
- kcat values of AmpC [14]: 10 s⁻¹

Structure (SMILES): CO[C@H]1CCC[C@H]2C1=C(C(=O)O)N1C(=O)[C@H]([C@@H](C)O)[C@@H]21 [sanfetrinem]
- Safety and tolerability [15]: good tolerability
- kcat values of AmpC [14]: 0.00033 s⁻¹
